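Assay format: 96-well plates, 48-hour exposure. The concentration for 50% growth inhibition is given as GI50.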 Active and inactive are the calls of the source. No stated cut-off is given here; in the data, active = GI50 up to about 1.1 µM and inactive = higher. Bounds are passed on as bounds.

The values that follow come from ChEMBL document CHEMBL1201862, “PubChem BioAssay data set” (2004).

Test systems include T47D; SF-268; IGROV-1; HT-29; NCI/ADR-RES; HCT-15; SNB-19; DMS-273; K562; OVCAR-8; HCC 2998; ACHN; M19-MEL; SK-MEL-28; MCF7; RPMI-8226; HL-60; TK-10; RXF 393; U-251.
Holding throughout (assay): NCI anticancer screen, dose series, 48 h

`CS(=O)(=O)OCCCNCCCOS(C)(=O)=O`: the GI50 was 573 µM (inactive) in the test on T47D; 879 µM (inactive) in the test with SF-268; 2110 µM (inactive) in the test with IGROV-1; 1210 µM (inactive) in the test on HT-29; 1600 µM (inactive) in the test with NCI/ADR-RES; 1460 µM in the test on HCT-15. Also, the GI50 in the test with SNB-19 was 1270 µM (inactive); in the test with DMS-273 it was 328 µM (inactive); with K562 it was 1580 µM (inactive); with OVCAR-8, 1650 µM (inactive); in the test with HCC 2998 it was 1280 µM (inactive); with ACHN it was 392 µM (inactive). Moreover, the GI50 is 1580 µM (inactive) with M19-MEL; 2440 µM (inactive) in the test with SK-MEL-28; 679 µM (inactive) with MCF7; 1310 µM (inactive) in the test with RPMI-8226; 201 µM (inactive) in the test on HL-60; 2020 µM (inactive) with TK-10. The figures for the GI50 in the test on RXF 393 and with U-251 were 1610 µM (inactive) and 893 µM (inactive), respectively.

Consider `CCn1c(=O)c(C(=O)O)c(Cl)c2cc3c(cc21)OCO3`, for which the GI50 with SF-268 is > 100 µM (inactive); in the test on IGROV-1, > 100 µM (inactive); with HT-29 it was > 100 µM (inactive); with NCI/ADR-RES it was > 100 µM (inactive); with HCT-15, greater than 100 µM; in the test on SNB-19, > 100 µM (inactive). The GI50 in the test on DMS-273, with K562, in the test on OVCAR-8, with HCC 2998, with M19-MEL and in the test with SK-MEL-28 was > 100 µM (inactive) throughout. Also, the GI50 in the test on MCF7, in the test on RPMI-8226, in the test on HL-60, in the test with RXF 393 and in the test with U-251 was > 100 µM (inactive) each time.

`OCC1OC(n2cnc3c2NC=NC[C@H]3O)C(O)C1O` (stereo partly specified): the GI50 in the test with SF-268 is > 384 µM (inactive); in the test with IGROV-1 it was > 450 µM (inactive); in the test with HT-29 it was > 450 µM (inactive); with NCI/ADR-RES it was > 436 µM (inactive); in the test on HCT-15 it was 205 µM; in the test with SNB-19 it was > 450 µM (inactive). Besides, the GI50 in the test with DMS-273 was 303 µM (inactive); in the test with K562 it was 249 µM (inactive); in the test on OVCAR-8, > 450 µM (inactive); with HCC 2998, > 330 µM (inactive); in the test on M19-MEL, > 450 µM (inactive); in the test with SK-MEL-28, > 450 µM (inactive). Moreover, the GI50 with MCF7 was > 450 µM (inactive); in the test with RPMI-8226, 201 µM (inactive); in the test with HL-60 it was 86.7 µM (inactive); in the test on RXF 393, 238 µM (inactive); with U-251 it was > 450 µM (inactive).

Consider `CC1CC(C)(O)C2C3(C)CCCC2(COC3=O)C12CCC1(CCOC1=O)O2` (stereo unspecified), for which the GI50 in the test on SF-268 was > 250 µM (inactive); with IGROV-1, > 250 µM (inactive); with HT-29 it was > 250 µM (inactive); in the test on NCI/ADR-RES, > 250 µM (inactive); in the test on HCT-15, greater than 250 µM; in the test with SNB-19 it was > 250 µM (inactive). For the same compound, the GI50 with DMS-273, with K562, in the test on OVCAR-8, with HCC 2998, in the test on M19-MEL and with SK-MEL-28 was > 250 µM (inactive) in each case. In addition, the GI50 in the test with MCF7, with RPMI-8226, in the test on HL-60, in the test on RXF 393 and with U-251 was > 250 µM (inactive) throughout.
